{"source": "patent US20080160019A1", "about": "“SEQUENTIAL COMBINATION THERAPY” (DYAX CORP., priority 2006, published 2008)", "test_system": "BxPC3 (human pancreatic cancer cell line) tumor", "assay": "Pancreatic cancer xenograft model, tumor size by calipers (Example 3)", "format": "in vivo, nude mice (nu/nu)", "conditions": "for Tumor volume: 40 mg/kg Q3d, four doses (positive control group 13)", "description": "The antitumor activity of combinations of DX-2240 and bevacizumab (anti-VEGF antibody) or sorafenib (multi-kinase inhibitor) were tested in a human tumor xenograft model. BxPC3 (human pancreatic cancer cell line) tumor fragments harvested from host nude mice (nu/nu) bearing subcutaneous BxPC-3 tumors were implanted subcutaneously into female nude mice (study animals) and allowed to form tumors. Mice were pair matched by tumor size and randomized into the various treatment groups when the tumors reached approximately 100 mm^3 (about 18 days following tumor implantation). The animals were assorted into the treatment groups shown in Table 1 (“Start” refers to the day on which treatment was begun). DX-2240 was administered by intraperitoneal (IP) injection at 20 mg/kg; bevacizumab was administered by IP injection at 10 mg/kg, sorafenib was administered orally at 60 mg/kg (for a total of 9 doses), and the control IgG (palivizumab, an antibody of the same isotype as DX-2240) was administered by IP injection at 20 mg/kg at the indicated dosing start dates and dosing regimens. An additional positive control group (group 13) was included: these animals were dosed with gemcitabine at 40 mg/kg Q3d for a total of four doses.\nTumor size was evaluated every three to four days using calipers.", "data": [{"smiles": "CNC(=O)c1cc(Oc2ccc(NC(=O)Nc3ccc(Cl)c(C(F)(F)F)c3)cc2)ccn1", "note": "[sorafenib]", "values": [{"measurement": "tumor size as compared to control", "setting": "as single agents", "result": "reduced tumor size"}]}, {"smiles": "Nc1ccn([C@@H]2O[C@H](CO)[C@@H](O)C2(F)F)c(=O)n1", "note": "[gemcitabine]", "values": [{"measurement": "Tumor volume", "setting": "day 1", "result": 106.5, "unit": "mm^3"}, {"measurement": "Tumor volume", "setting": "day 3", "result": 144.1, "unit": "mm^3"}, {"measurement": "Tumor volume", "setting": "day 7", "result": 214.9, "unit": "mm^3"}, {"measurement": "Tumor volume", "setting": "day 10", "result": 280.8, "unit": "mm^3"}, {"measurement": "Tumor volume", "setting": "day 14", "result": 347.7, "unit": "mm^3"}, {"measurement": "Tumor volume", "setting": "day 21", "result": 686.1, "unit": "mm^3"}, {"measurement": "Tumor volume", "setting": "day 24", "result": 848.1, "unit": "mm^3"}, {"measurement": "Tumor volume", "setting": "day 28", "result": 1084.8, "unit": "mm^3"}, {"measurement": "Tumor volume", "setting": "day 31", "result": 1325.2, "unit": "mm^3"}]}]}
